The structures appear in SMILES notation. Structures can show the parent of a compound that is named as a salt. Where two headings read alike, the source gives them in different places.

Assay [1] relates to Human colon tumor cells (Colo205). In words: Cell growth inhibition assay (CellTiter-Glo), Colo205. The assay is classed as cell-based. The conditions noted are these: COLO 205, Table 2b, later runs, average for the one or more runs, categorized, read-out: IC50 for Colo205. The essentials: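 Luminescent ATP read-out (CellTiter-Glo) served as a proxy for cell number; percent growth inhibition was calculated against DMSO vehicle wells. Cells were treated for 3 days at 37 °C with serially diluted compound, 0.2% DMSO final.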

The test system of assay [2] is Human melanoma cancer cells (SK-MEL-28). Description: Cell growth inhibition assay (CellTiter-Glo), SK-MEL-28. The assay is classed as cell-based. The conditions noted are these: SK-MEL-28, Table 3b, later runs, average for the one or more runs, categorized, read-out: IC50 for SK-MEL-28.
Assay [3] has as its target T1, BRAFV600E full-length (amino acids 2-766) (Homo sapiens, UniProt P15056, V600E).
T1 construct: His6-tagged BRAFV600E full-length (amino acids 2-766); His6; made in house; host or cells: baculovirus expression system (insect cells)
Description: B-Raf Accelerated MEK ATPase assay (BRAMA). Type of assay: biochemical. The following applies: later runs, average pIC50 for the one or more runs, categorized. Summed up:
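Coupled-enzyme readout: ADP generated by MEK-mediated ATP hydrolysis, uncoupled from ERK phosphorylation, is linked to NADH oxidation through pyruvate kinase and lactate dehydrogenase.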

Setting [4] is: Table 1b, read-out: B-Raf pIC50 (converted).

T1 sequence (P15056 2-766 V600E): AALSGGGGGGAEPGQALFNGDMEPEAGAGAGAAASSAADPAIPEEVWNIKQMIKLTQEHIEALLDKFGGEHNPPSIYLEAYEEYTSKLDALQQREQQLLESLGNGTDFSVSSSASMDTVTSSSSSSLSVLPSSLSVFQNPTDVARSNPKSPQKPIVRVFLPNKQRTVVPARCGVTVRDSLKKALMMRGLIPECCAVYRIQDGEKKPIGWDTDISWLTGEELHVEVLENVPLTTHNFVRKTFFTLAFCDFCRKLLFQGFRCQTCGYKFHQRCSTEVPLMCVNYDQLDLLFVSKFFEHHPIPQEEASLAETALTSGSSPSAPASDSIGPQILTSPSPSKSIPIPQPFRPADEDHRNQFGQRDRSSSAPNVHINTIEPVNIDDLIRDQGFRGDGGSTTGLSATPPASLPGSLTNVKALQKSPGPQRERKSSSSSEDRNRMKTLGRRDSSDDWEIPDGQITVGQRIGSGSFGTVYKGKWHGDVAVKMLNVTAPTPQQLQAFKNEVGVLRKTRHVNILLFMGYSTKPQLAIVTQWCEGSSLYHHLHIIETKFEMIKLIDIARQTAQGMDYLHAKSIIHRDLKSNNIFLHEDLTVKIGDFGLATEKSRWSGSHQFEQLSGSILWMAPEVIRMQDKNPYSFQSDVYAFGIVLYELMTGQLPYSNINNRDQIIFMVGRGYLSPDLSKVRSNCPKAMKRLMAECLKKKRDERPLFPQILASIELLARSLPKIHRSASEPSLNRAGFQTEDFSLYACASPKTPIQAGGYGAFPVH

With `CC(C)(C)c1nc(-c2cccc(NS(=O)(=O)c3cc(F)ccc3F)c2F)c(-c2ccnc(CCC(=O)N3CCS(=O)(=O)CC3)n2)s1` [Example 255, N-[3-(2-(1,1-dimethylethyl)-5-{2-[3-(1,1-dioxido-4-thiomorpholinyl)-3-oxopropyl]-4-pyrimidinyl}-1,3-thiazol-4-yl)-2-fluorophenyl]-2,5-difluorobenzenesulfonamide], the IC50 in assay [1] was under 0.1 µM; in assay [2], under 0.1 µM; in assay [3] (setting [4]), 0.00316 to 0.0316 µM.

With `CC(C)(C)c1nc(-c2cccc(NS(=O)(=O)c3ccoc3)c2F)c(-c2ccncn2)s1` [Example 256, N-{3-[2-(1,1-dimethylethyl)-5-(4-pyrimidinyl)-1,3-thiazol-4-yl]-2-fluorophenyl}-3-furansulfonamide], the IC50 in assay [1] is under 0.1 µM; in assay [2], under 0.1 µM; in assay [3] (B-Raf pIC50, Table 1b) it was at most 0.00316 µM.

`CC(C)(C)c1nc(-c2c(F)ccc(NS(=O)(=O)c3cc(F)ccc3F)c2F)c(-c2ccnc(N)n2)s1` [Example 258, N-{3-[5-(2-amino-4-pyrimidinyl)-2-(1,1-dimethylethyl)-1,3-thiazol-4-yl]-2,4-difluorophenyl}-2,5-difluorobenzenesulfonamide]: the IC50 is under 0.1 µM in assay [1]; under 0.1 µM in assay [2]; at most 0.00316 µM in assay [3] (B-Raf pIC50, Table 1b).

As for `CC(C)(C)c1nc(-c2cccc(NS(=O)(=O)c3ccco3)c2Cl)c(-c2ccnc(N)n2)s1` [Example 259, N-{3-[5-(2-amino-4-pyrimidinyl)-2-(1,1-dimethylethyl)-1,3-thiazol-4-yl]-2-chlorophenyl}-2-furansulfonamide], the IC50 in assay [1] is under 0.1 µM; in assay [2] it was under 0.1 µM; in assay [3] (B-Raf pIC50, Table 1b) it was at most 0.00316 µM.

With `Cc1nccc(-c2sc(C(C)(C)C)nc2-c2c(F)ccc(NS(=O)(=O)c3cc(F)ccc3F)c2F)n1` [Example 262, N-{3-[2-(1,1-dimethylethyl)-5-(2-methyl-4-pyrimidinyl)-1,3-thiazol-4-yl]-2,4-difluorophenyl}-2,5-difluorobenzenesulfonamide], the IC50 in assay [1] is under 0.1 µM; in assay [2], under 0.1 µM; in assay [3] (B-Raf pIC50, Table 1b), at most 0.00316 µM.

Consider `Cc1nccc(-c2sc(C(C)(C)C)nc2-c2cccc(NS(=O)(=O)c3ccco3)c2Cl)n1` [Example 263, N-{2-chloro-3-[2-(1,1-dimethylethyl)-5-(2-methyl-4-pyrimidinyl)-1,3-thiazol-4-yl]phenyl}-2-furansulfonamide], for which the IC50 in assay [1] was 0.1 to 1 µM; in assay [2], 0.1 to 1 µM; in assay [3] (B-Raf pIC50, Table 1b) it was at most 0.00316 µM.

Consider `CC(C)(C)c1nc(-c2cccc(NS(=O)(=O)c3ccoc3)c2Cl)c(-c2ccnc(N)n2)s1` [Example 264, N-{3-[5-(2-amino-4-pyrimidinyl)-2-(1,1-dimethylethyl)-1,3-thiazol-4-yl]-2-chlorophenyl}-3-furansulfonamide], for which the IC50 is under 0.1 µM in assay [1]; under 0.1 µM in assay [2]; at most 0.00316 µM in assay [3] (B-Raf pIC50, Table 1b).

Consider `Nc1nccc(-c2sc(N3CCOCC3)nc2-c2cccc(NS(=O)(=O)c3ccoc3)c2Cl)n1` [Example 266, N-{3-[5-(2-amino-4-pyrimidinyl)-2-(4-morpholinyl)-1,3-thiazol-4-yl]-2-chlorophenyl}-3-furansulfonamide], for which the IC50 in assay [1] is under 0.1 µM; in assay [2] it was under 0.1 µM; in assay [3] (B-Raf pIC50, Table 1b), at most 0.00316 µM.

For `Nc1nccc(-c2sc(N3CCOCC3)nc2-c2cccc(NS(=O)(=O)c3ccoc3)c2F)n1` [Example 267, N-{3-[5-(2-amino-4-pyrimidinyl)-2-(4-morpholinyl)-1,3-thiazol-4-yl]-2-fluorophenyl}-3-furansulfonamide], the IC50 in assay [1] is 0.1 to 1 µM; in assay [2], 0.1 to 1 µM; in assay [3] (B-Raf pIC50, Table 1b), at most 0.00316 µM.

With `O=S(=O)(Nc1cccc(-c2nc(N3CCOCC3)sc2-c2ccncn2)c1Cl)c1ccoc1` [Example 269, N-{2-chloro-3-[2-(4-morpholinyl)-5-(4-pyrimidinyl)-1,3-thiazol-4-yl]phenyl}-3-furansulfonamide], the IC50 was under 0.1 µM in assay [1]; 0.1 to 1 µM in assay [2]; at most 0.00316 µM in assay [3] (B-Raf pIC50, Table 1b).

In the case of `Cc1nccc(-c2sc(C(C)(C)C)nc2-c2cccc(NS(=O)(=O)c3ccoc3)c2Cl)n1` [Example 270, N-{2-chloro-3-[2-(1,1-dimethylethyl)-5-(2-methyl-4-pyrimidinyl)-1,3-thiazol-4-yl]phenyl}-3-furansulfonamide], the IC50 in assay [1] was 0.1 to 1 µM; in assay [2] it was 0.1 to 1 µM; in assay [3] (B-Raf pIC50, Table 1b), at most 0.00316 µM.

As for `Cc1nccc(-c2sc(N3CCOCC3)nc2-c2cccc(NS(=O)(=O)c3ccoc3)c2Cl)n1` [Example 271, N-{2-chloro-3-[5-(2-methyl-4-pyrimidinyl)-2-(4-morpholinyl)-1,3-thiazol-4-yl]phenyl}-3-furansulfonamide], the IC50 is 0.1 to 1 µM in assay [1], under 0.1 µM in assay [2] and 0.00316 to 0.0316 µM in assay [3] (setting [4]).

As to `Cc1nccc(-c2sc(N3CCOCC3)nc2-c2cccc(NS(=O)(=O)c3ccoc3)c2F)n1` [Example 272, N-{2-fluoro-3-[5-(2-methyl-4-pyrimidinyl)-2-(4-morpholinyl)-1,3-thiazol-4-yl]phenyl}-3-furansulfonamide], the IC50 in assay [1] is 0.1 to 1 µM; in assay [2], under 0.1 µM; in assay [3] (setting [4]), 0.00316 to 0.0316 µM.

Regarding `CC(C)(C)c1nc(-c2cccc(NS(=O)(=O)c3ccccn3)c2F)c(-c2ccnc(N)n2)s1` [Example 278, N-{3-[5-(2-amino-4-pyrimidinyl)-2-(1,1-dimethylethyl)-1,3-thiazol-4-yl]-2-fluorophenyl}-2-pyridinesulfonamide], the IC50 in assay [1] was 0.1 to 1 µM; in assay [2], 0.1 to 1 µM; in assay [3] (setting [4]), 0.00316 to 0.0316 µM.

For `Nc1nccc(-c2sc(C3CCOCC3)nc2-c2cccc(NS(=O)(=O)c3cnccn3)c2F)n1` [Example 280, N-{3-[5-(2-amino-4-pyrimidinyl)-2-(tetrahydro-2H-pyran-4-yl)-1,3-thiazol-4-yl]-2-fluorophenyl}-2-pyrazinesulfonamide], the IC50 is 0.1 to 1 µM in assay [1]; 0.1 to 1 µM in assay [2]; at most 0.00316 µM in assay [3] (B-Raf pIC50, Table 1b).

With `Nc1nccc(-c2sc(C3CCOCC3)nc2-c2cccc(NS(=O)(=O)c3ccoc3)c2F)n1` [Example 281, N-{3-[5-(2-amino-4-pyrimidinyl)-2-(tetrahydro-2H-pyran-4-yl)-1,3-thiazol-4-yl]-2-fluorophenyl}-3-furansulfonamide], the IC50 in assay [1] was under 0.1 µM; in assay [2] it was under 0.1 µM; in assay [3] (B-Raf pIC50, Table 1b), at most 0.00316 µM.

Consider `Cn1nccc1S(=O)(=O)Nc1cccc(-c2nc(C(C)(C)C)sc2-c2ccnc(N)n2)c1F` [Example 282, N-{3-[5-(2-amino-4-pyrimidinyl)-2-(1,1-dimethylethyl)-1,3-thiazol-4-yl]-2-fluorophenyl}-1-methyl-1H-pyrazole-5-sulfonamide hydrochloride], for which the IC50 in assay [1] lay in the range of 0.1 to 1 µM; in assay [2], 1 to 10 µM; in assay [3] (B-Raf pIC50, Table 1b), 0.0316 to 1 µM.

As to `Cn1cc(S(=O)(=O)Nc2cccc(-c3nc(C(C)(C)C)sc3-c3ccnc(N)n3)c2F)cn1` [Example 283, N-{3-[5-(2-amino-4-pyrimidinyl)-2-(1,1-dimethylethyl)-1,3-thiazol-4-yl]-2-fluorophenyl}-1-methyl-1H-pyrazole-4-sulfonamide hydrochloride], the IC50 in assay [1] was 0.1 to 1 µM; in assay [2], 0.1 to 1 µM; in assay [3] (setting [4]), 0.00316 to 0.0316 µM.

The values above are taken from patent US7994185B2, “Benzene sulfonamide thiazole and oxazole compounds” (Glaxo Smith Kline LLC, priority 2008, dated 2011).
